Like-named read-outs stand apart in the source and are kept apart here.
Columns and labels:
[1] = system: patients with high-risk ET; conditions: cited from earlier work
[2] = system: IL6 release from THP-1 acute leukemia cells; test: IL6 release from lipopolysaccharide-treated THP-1 cells; type: cell-based; conditions: Homo sapiens; THP-1 cells exposed to lipopolysaccharide, then compound for 16 hours; read-out: IL6 release inhibition IC50
Method: Compound 1 was assessed for its ability to suppress the expression of NF-κB target genes in two experiments. In one experiment, THP-1 acute leukemia cell lines were exposed to lipopolysaccharide treatment and then Compound 1 for 16 hours. […] In the other experiment, the ability of Compound 1 to suppress both IL6 and IL10 expression in TMD8 ABC-DLBCL cells was investigated (data on file). TMD8 cells were incubated with DMSO or 1.6 μM Compound 1 for 6 or 24 hours. RNA was then extracted from the cells and quantified using qRT-PCR.

[3] = system: CD34+ cells isolated from healthy donor bone marrow; test: Megakaryocyte differentiation of CD34+ cells (FACS, CD41a expression); type: cell-based; conditions: 14 days, FACS (FIG. 2)
Method: The effects of Compound 1 on megakaryocyte differentiation and proliferation were evaluated using CD34+ cells isolated from healthy donor bone marrow (data on file). The CD34+ cells were grown in megakaryocyte differentiation serum-free stem cell differentiation base medium with a megakaryocyte-driving cytokine cocktail for 14 days with DMSO or Compound 1 at concentrations ranging from 3 nM to 500 nM. The cells were then stained for CD34 (progenitor marker), CD45 (leukocyte marker) and CD41a (mature megakaryocyte marker) and assessed by FACS for viability and marker expression. CD41a expression and cell size were used as markers of megakaryocyte differentiation. […] The shift from high to low CD41a expression began at approximately 50 nM, with pronounced effects observed at 200 to 500 nM, as shown in FIG. 2.

Row | Structure (SMILES) | survival from the beginning of treatment ([1]; 14-year retrospective study, 166 high-risk ET patients) | patients who died ([1]; 166 high-risk ET patients treated for a median of 4.5 years, median follow-up of seven years from diagnosis) | 10-year overall survival ([1]; patients who achieved a complete response) | 10-year overall survival ([1]; patients with HU resistance) | IC50 [2] | concentration at which shift from high to low CD41a expression began [3]
1 | NC(=O)NO [HU, hydroxyurea] | 65% | 23% | 79% | 26% | – | –
2 | Cc1noc2c1-c1ccccc1C(c1ccc(Cl)cc1)=N[C@H]2CC(N)=O [Compound 1, 2-((4S)-6-(4-chlorophenyl)-1-methyl-4H-benzo[c]isoxazolo[4,5-e]azepin-4-yl)acetamide] | – | – | – | – | 0.069 µM | approximately 50 nM

— patent publication US20230302010A1, “2-((4S)-6-(4-CHLOROPHENYL)-1-METHYL-4H-BENZO[C]ISOXAZOLO[4,5-E]AZEPIN-4-YL)ACETAMIDE FOR TREATING THROMBOCYTHEMIA” (Constellation Pharmaceuticals, Inc., priority 2020, published 2023)
